Assays:
[1] = tested on: Caco2 intestinal cell model; settings: Totterman et al. 1997, Ono et al. 2001; cited from earlier work
Caco2 cells = assay: In vitro uptake of CoQ-10 in Caco2 cells; format: in vitro ADME, human; settings: 100 μg CoQ-10/flask, sum of reduced and oxidized forms, control = endogenous level
Description: The cellular uptake of the CoQ-10 from the cyclodextrin complexes was determined in vitro in model cell culture systems. For example, the uptake was determined using an in vitro Caco2 intestinal cell culture model indicative of in vivo intestinal absorption. This cell line has been used as a model system to examine the selective characteristics of intestinal absorption of compounds, such as vitamin E (Traber et al., 1990), retinol, beta lactoglobulin, palmitic acid (Puyol et al., 1995), carotenoids (Garrett et al., 1999), and polyamines (Turchanowa et al., 2001). […] CoQ-10 incorporated into mixed micelles was used for comparison.
The uptake of CoQ-10 from the cyclodextrin complex dried by different methods was compared to commercially available CoQ-10 powder (99% pure, used in hard capsules) and CoQ-10 powder incorporated into mixed micelles, simulating the digestive process.
The mixed micelles were prepared by the method of Garrett et al. (1999) using sodium taurocholate (bile salt), mono-acylglycerol, oleic acid, phosphatidyl choline, lysophosphatidylcholine, and CoQ-10 in phosphate buffered saline (PBS). The CoQ-10/cyclodextrin complexes were dispersed in PBS. The stock solutions contained 30 mg CoQ-10/10 ml.
The cellular uptake of CoQ-10 as a function of media concentration and exposure time was determined based on the method of Garrett et al. (1999). Caco-2 (ATCC, Rockville, Md.) cells were maintained in high glucose DMEM with 15 mM HEPES and 10% heat inactivated fetal bovine serum, nonessential amino acids, glutamine, and pyruvate in a humidified atmosphere at 5% CO2 and 37° C. The cells were allowed to reach confluency (5–6 days after subculture) and differentiate (14 days) in 25 cm^2 flasks before the start of the experiment.
The stock test samples were diluted in the culture medium for the experiment. The monolayers were washed with PBS before adding the test samples at known CoQ-10 concentration (100 μg/flask). […] The cultures were incubated as before and the CoQ-10 uptake was terminated at indicated times. […] The chromatograms were monitored at 275 nm.

Cellular Total CoQ-10 (Treated/Control) (Caco2 cells; 5 hr incubation)	Cellular Total CoQ-10 (Treated/Control) (Caco2 cells; 10 hr incubation)	Cellular Total CoQ-10 (Treated/Control) (Caco2 cells; 24 hr incubation)	Molecule	Cytotoxicity / effect on Caco2 cells [1]
–	–	–	maltosyl-α-cyclodextrin	less toxic as compared to α-cyclodextrin
–	–	–	OC[C@H]1O[C@@H]2O[C@H]3[C@H](O)[C@@H](O)[C@@H](O[C@H]4[C@H](O)[C@@H](O)[C@@H](O[C@H]5[C@H](O)[C@@H](O)[C@@H](O[C@H]6[C@H](O)[C@@H](O)[C@@H](O[C@H]7[C@H](O)[C@@H](O)[C@@H](O[C@H]8[C@H](O)[C@@H](O)[C@@H](O[C@H]9[C@H](O)[C@@H](O)[C@@H](O[C@H]1[C@H](O)[C@H]2O)O[C@@H]9CO)O[C@@H]8CO)O[C@@H]7CO)O[C@@H]6CO)O[C@@H]5CO)O[C@@H]4CO)O[C@@H]3CO [γ-Cyclodextrin]	least effect even at a relatively high concentration of 150 mM
1.0	1.0	1.0	COC1=C(OC)C(=O)C(C/C=C(\C)CC/C=C(\C)CC/C=C(\C)CC/C=C(\C)CC/C=C(\C)CC/C=C(\C)CC/C=C(\C)CC/C=C(\C)CC/C=C(\C)CCC=C(C)C)=C(C)C1=O [CoQ-10 Powder, Coenzyme Q-10]	–
–	–	–	dimethyl β-cyclodextrin	dose dependent cytotoxicity
